Measured values from patent US9938273B2 (Plexxikon Inc., priority 2015, dated 2018).

How the values were obtained:
[1] = system: MOLM-14 D835Y cells, FLT3 ITD and FLT3 D835Y; assay: Cell proliferation assay (CellTiter-Glo), MOLM-14 D835Y; assay type: cell-based; details: Homo sapiens, 72 h, 3d-Growth, GMean
Description: The FLT3 inhibitors may be assessed using the MOLM-14, Acute Myeloid Leukemia cell line that endogenously expresses FLT3 ITD or derivatives of the human FLT3 AML cell line which acquired the D835Y (activation loop) of F691L (gatekeeper) mutation after selection in escalating doses of the FLT3 Inhibitor AC220. FLT3 inhibitors may also be assessed using cells that are engineered to express mutant FLT3. For engineered cells, murine Ba/F3 cells were transfected with full-length FLT3 ITD/D835Y mutations. The parental BA/F3 cells are dependent upon Interleukin-3 (IL-3) for survival, and introduction of the FLT3 constructs rendered these cells dependent upon FLT3 kinase activity when cultured in the absences of IL-3. Engineered BA/F3 cell growth assays can be performed in either the […] of IL-3, to assess the compound inhibition of FLT3 or to detect the presence of off-target activity, respectively. Inhibitors of FLT3 kinase activity reduce or eliminate the FLT3 oncogenic signaling, resulting in reduced cell proliferation. This inhibition is measured as a function of compound concentration to asses IC50 values.
Cell lines used in proliferation assays are as follows in Table 3:
Cells were seeded at 1×10^4 cells per well of a 96 well cell culture plate in 50 μl of cell culture medium. Compounds were dissolved in DMSO, typically at a concentration of 0.5 mM and were serially diluted 1:3 for a total of eight points and added to the cells to final concentrations of […], 0.0041, 0.0014 and 0.00046 μM in 100 μl cell culture medium (final concentration 0.2% DMSO). […] The cells were incubated at 37° C., 5% CO2 for three days. CellTiter-Glo Buffer (Promega Cell Viability Assay catalog #G7573) and substrate were equilibrated to room temperature, and enzyme/substrate Recombinant Firefly Luciferase/Beetle Luciferin was reconstituted. The cell plates were equilibrated to room temperature for 30 minutes, then lysed by addition of an equivalent volume of the Celltiter-Glo Reagent. The plate was mixed for 10 minutes on a plate shaker to lyse the cells. The plates were read on a Tecan M1000 using Luminescence protocol modified to read 0.1 s per well. The luminescence reading assesses the ATP content, which correlates directly with cell number such that the reading as a function of compound concentration was used to determine the IC50 value.

FLT3-D835Y = molecular target: T1, FLT3-D835Y (Homo sapiens, UniProt P36888, D835Y); assay: AlphaScreen kinase assay with recombinant enzyme, FLT3-D835Y; assay type: biochemical; details: 8pt, GMean
T1 construct: purchased Invitrogen PV3967
T1 sequence (P36888 27-993 D835Y): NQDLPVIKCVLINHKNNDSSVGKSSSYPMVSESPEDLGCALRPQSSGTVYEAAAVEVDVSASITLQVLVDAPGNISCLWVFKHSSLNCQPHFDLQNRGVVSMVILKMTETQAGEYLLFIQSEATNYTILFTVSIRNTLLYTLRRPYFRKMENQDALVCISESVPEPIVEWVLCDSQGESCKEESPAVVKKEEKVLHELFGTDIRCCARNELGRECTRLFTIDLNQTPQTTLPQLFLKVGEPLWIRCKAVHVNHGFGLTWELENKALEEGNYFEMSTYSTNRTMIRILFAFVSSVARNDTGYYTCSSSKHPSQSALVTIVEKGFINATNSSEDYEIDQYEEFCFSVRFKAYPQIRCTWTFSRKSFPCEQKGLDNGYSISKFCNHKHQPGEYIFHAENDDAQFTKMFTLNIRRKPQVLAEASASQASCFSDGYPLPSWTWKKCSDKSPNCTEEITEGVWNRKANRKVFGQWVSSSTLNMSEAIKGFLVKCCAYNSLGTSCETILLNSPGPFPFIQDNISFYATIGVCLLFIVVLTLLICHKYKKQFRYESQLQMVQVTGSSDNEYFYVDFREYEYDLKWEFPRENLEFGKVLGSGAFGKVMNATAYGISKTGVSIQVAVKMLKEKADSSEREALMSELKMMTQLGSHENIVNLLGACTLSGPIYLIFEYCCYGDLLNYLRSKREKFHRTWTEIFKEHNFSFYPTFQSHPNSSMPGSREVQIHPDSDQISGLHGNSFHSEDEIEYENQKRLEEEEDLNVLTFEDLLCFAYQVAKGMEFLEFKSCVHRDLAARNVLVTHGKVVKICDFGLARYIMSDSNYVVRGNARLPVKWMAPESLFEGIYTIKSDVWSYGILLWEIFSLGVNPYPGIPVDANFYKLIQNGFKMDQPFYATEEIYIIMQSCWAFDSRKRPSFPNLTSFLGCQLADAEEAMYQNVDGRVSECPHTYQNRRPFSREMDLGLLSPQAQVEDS
Experimental: (§1) In order to determine the effect of compounds on FLT3 catalytic activity, kinase assays using recombinant enzymes and AlphaScreen® technology have been established. The catalytic activity of c-kit activity was also measured to determine selectivity of the compounds. When the kinases are catalytically active, they phosphorylate a biotinylated peptide substrate on tyrosine residues. Using AlphaScreen® technology, the ability of the compounds to affect the catalytic activity of the kinases can be measured quantitatively. The peptide substrate is immobilized by the AlphaScreen® Streptavidin Donor beads and, upon phosphorylation by a tyrosine kinase, can bind to AlphaScreen® Anti-Phosphotyrosine (PY20) Acceptor beads. Upon excitation of these beads with laser light at 680 nm, singlet oxygen is produced. This singlet oxygen is rapidly quenched, unless the AlphaScreen® Anti-Phosphotyrosine (PY20) Acceptor beads are in close proximity, in which case a proximity signal can be measured at 580 nm. In the presence of catalytic activity, there is a very strong proximity signal. Selective kinase inhibitors affect a decrease in this proximity signal through a decrease in tyrosine phosphorylation of the peptide substrate.
(§2) The assay was performed as summarized below.
(§3) Poly (Glu4-Tyr) Peptide, biotin conjugate [Biotin-GG(EEEEY)10EE] (SEQ ID NO: 4)
(§4) Final concentration=30 nM
(§5) Final concentration for IC50 determination=10 μM (FLT3-D835Y or FLT3-ITD) or 100 μM (c-KIT)
(§6) AlphaScreen® Phosphotyrosine (PY20) Assay Kit
(§7) Final concentration=10 μg/mL
(§8) Dilute compounds in DMSO to 20× final concentration.
(§9) Add 1 μl of compound to each well of 384 well reaction plate (Perkin Elmer #6005359).
(§10) Mix enzyme and Poly (Glu4-Tyr) Peptide substrate at 1.33× final concentration in assay buffer.
(§11) Mix ATP at 5× final concentration in assay buffer.
(§12) Add 15 μL enzyme/substrate mixture to the reaction plate.
(§13) Add 4 μL of ATP to the reaction plate.
(§14) Mix Streptavidin Donor beads at 6× final concentration in Stop/Detection buffer.
(§15) Add 5 μL Streptavidin Donor beads to the reaction plate. Centrifuge 1 minute, shake to mix, and incubate at room temperature for 20 minutes.
(§16) Mix Anti-Phosphotyrosine (PY20) Acceptor beads at 6× final concentration in Stop/Detection buffer.
(§17) Add 5 μL Anti-Phosphotyrosine (PY20) beads to the reaction plate.
(§18) Centrifuge 1 minute, shake to mix, and incubate at room temperature for 60 minutes.
(§19) Read plate on Wallac EnVision™ 2103 Multilabel Reader.

c-KIT = molecular target: T2, c-KIT (Homo sapiens, UniProt P10721); assay: AlphaScreen kinase assay with recombinant enzyme, c-KIT; assay type: biochemical; details: 100ATP, 8pt, GMean
T2 construct: purchased Millipore 14-559K
T2 sequence (P10721 26-976): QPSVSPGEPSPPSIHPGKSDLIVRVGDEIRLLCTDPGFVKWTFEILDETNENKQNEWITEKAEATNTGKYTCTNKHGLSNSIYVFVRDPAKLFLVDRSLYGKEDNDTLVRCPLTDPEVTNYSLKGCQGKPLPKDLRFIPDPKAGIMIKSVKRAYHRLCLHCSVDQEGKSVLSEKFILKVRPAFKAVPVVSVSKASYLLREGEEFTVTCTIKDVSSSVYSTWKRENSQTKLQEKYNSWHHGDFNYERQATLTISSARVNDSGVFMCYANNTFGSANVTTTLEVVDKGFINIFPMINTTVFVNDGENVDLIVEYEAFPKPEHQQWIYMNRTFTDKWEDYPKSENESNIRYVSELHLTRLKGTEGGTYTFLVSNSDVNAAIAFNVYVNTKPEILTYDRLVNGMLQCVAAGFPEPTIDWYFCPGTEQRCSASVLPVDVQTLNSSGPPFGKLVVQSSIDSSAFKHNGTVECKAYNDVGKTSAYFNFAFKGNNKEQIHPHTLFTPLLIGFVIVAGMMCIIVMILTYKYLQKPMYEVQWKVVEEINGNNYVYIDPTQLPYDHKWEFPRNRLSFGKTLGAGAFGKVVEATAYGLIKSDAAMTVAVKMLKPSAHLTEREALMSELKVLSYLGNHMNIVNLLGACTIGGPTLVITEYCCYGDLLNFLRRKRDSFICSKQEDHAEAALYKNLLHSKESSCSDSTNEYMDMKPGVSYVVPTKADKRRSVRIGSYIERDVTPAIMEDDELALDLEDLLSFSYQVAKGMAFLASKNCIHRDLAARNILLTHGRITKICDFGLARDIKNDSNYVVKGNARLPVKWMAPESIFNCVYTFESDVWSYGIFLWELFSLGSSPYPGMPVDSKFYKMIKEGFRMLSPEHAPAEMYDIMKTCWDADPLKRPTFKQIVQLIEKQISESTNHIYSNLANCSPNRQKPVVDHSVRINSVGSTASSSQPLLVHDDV
Experimental: as §1, §2, §3, §4, §5, §6, §7, §8, §9, §10, §11, §12, §13, §14, §15, §16, §17, §18, §19

FLT3-ITD = molecular target: T3, FLT3-ITD (Homo sapiens, UniProt P36888); assay: AlphaScreen kinase assay with recombinant enzyme, FLT3-ITD; assay type: biochemical; details: 8pt; read-out: FLT3_ITD 8pt: IC50
T3 sequence (P36888 1-993): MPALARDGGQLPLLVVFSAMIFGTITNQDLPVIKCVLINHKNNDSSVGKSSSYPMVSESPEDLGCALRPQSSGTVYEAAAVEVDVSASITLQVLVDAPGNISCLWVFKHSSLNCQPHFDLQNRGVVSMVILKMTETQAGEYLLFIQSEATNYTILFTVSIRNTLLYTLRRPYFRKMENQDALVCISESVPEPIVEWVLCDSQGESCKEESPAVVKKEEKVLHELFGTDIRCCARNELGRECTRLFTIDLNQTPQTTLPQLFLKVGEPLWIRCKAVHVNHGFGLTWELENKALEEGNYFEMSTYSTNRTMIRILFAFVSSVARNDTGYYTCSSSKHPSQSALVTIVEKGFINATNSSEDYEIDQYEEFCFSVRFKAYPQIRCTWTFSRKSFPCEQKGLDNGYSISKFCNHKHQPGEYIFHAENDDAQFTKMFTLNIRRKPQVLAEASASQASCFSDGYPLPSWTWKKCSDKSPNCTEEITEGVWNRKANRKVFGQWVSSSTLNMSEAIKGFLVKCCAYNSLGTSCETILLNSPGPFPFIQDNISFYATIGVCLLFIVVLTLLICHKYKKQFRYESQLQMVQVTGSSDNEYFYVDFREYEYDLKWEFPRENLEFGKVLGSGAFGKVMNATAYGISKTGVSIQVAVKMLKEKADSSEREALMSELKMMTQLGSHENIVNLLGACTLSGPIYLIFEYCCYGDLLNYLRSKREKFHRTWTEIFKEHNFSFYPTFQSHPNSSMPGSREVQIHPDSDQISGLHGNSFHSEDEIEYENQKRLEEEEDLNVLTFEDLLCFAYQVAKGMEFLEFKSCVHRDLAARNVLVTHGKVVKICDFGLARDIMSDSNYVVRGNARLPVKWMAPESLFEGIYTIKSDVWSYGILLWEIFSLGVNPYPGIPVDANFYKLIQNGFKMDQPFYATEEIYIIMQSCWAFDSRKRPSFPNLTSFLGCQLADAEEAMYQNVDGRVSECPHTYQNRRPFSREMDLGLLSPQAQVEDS
Experimental: as §1, §2, §3, §4, §5, §6, §7, §8, §9, §10, §11, §12, §13, §14, §15, §16, §17, §18, §19

Structure (SMILES)	IC50 [1] [µM]	IC50 (FLT3-D835Y) [µM]	IC50 (c-KIT) [µM]	IC50 (FLT3-ITD) [µM]
O=C(O)C1CCN(C(=O)c2cccc(-c3cnc4[nH]c(-c5ccccc5)cc4c3)n2)CC1 [Compound P-0024, 1-[6-(2-phenyl-1H-pyrrolo[2,3-b]pyridin-5-yl)pyridine-2-carbonyl]piperidine-4-carboxylic acid]	–	0.0001 to 10	10 to 50	0.0001 to 10
NC1CCC(NC(=O)c2n[nH]c3ccc(-c4cnc5[nH]c(-c6ccccc6)cc5c4)cc23)CC1 (centres unmarked) [Compound P-0019, N-(4-aminocyclohexyl)-5-(2-phenyl-1H-pyrrolo[2,3-b]pyridin-5-yl)-1H-indazole-3-carboxamide]	–	0.0001 to 10	0.0001 to 10	0.0001 to 10
CN[C@H]1CCN(C(=O)c2cccc(-c3cnc4[nH]c(-c5ccccc5)cc4c3)n2)C1 [Compound P-0051, [(3S)-3-(methylamino)pyrrolidin-1-yl]-[6-(2-phenyl-1H-pyrrolo[2,3-b]pyridin-5-yl)-2-pyridyl]methanone]	–	0.0001 to 10	0.0001 to 10	0.0001 to 10
Cn1cc(NC(=O)c2cccc(-c3cnc4[nH]c(-c5ccccc5)cc4c3)n2)cn1 [Compound P-0065, N-(1-methylpyrazol-4-yl)-6-(2-phenyl-1H-pyrrolo[2,3-b]pyridin-5-yl)pyridine-2-carboxamide]	–	0.0001 to 10	10 to 50	–
Cn1ccc(NC(=O)c2cccc(-c3cnc4[nH]c(-c5ccccc5)cc4c3)n2)n1 [Compound P-0066, N-(1-methylpyrazol-3-yl)-6-(2-phenyl-1H-pyrrolo[2,3-b]pyridin-5-yl)pyridine-2-carboxamide]	–	0.0001 to 10	50 to 100	0.0001 to 10

Further lines, results first:

IC50 [1] [µM]	IC50 (FLT3-D835Y) [µM]	IC50 (c-KIT) [µM]	IC50 (FLT3-ITD) [µM]	Structure (SMILES)
0.0001 to 10	0.0001 to 10	–	–	COC(=O)C1(NC(=O)c2cccc(-c3cnc4[nH]c(-c5ccccc5)cc4c3)n2)CC1 [Compound P-0129, methyl 1-[[6-(2-phenyl-1H-pyrrolo[2,3-b]pyridin-5-yl)pyridine-2-carbonyl]amino]cyclopropanecarboxylate]
–	–	10 to 50	–	O=C(c1ccc(-c2cnc3[nH]c(-c4ccccc4)cc3c2)s1)N1CCC(n2ccnc2)C1 (centres unmarked) [Compound P-0110, (3-imidazol-1-ylpyrrolidin-1-yl)-[5-(2-phenyl-1H-pyrrolo[2,3-b]pyridin-5-yl)-2-thienyl]methanone]
–	0.0001 to 10	50 to 100	0.0001 to 10	CC(C)(C#N)NC(=O)c1cccc(-c2cnc3[nH]c(-c4ccnc(F)c4)cc3c2)n1 [Compound P-0209, N-(1-cyano-1-methyl-ethyl)-6-[2-(2-fluoro-4-pyridyl)-1H-pyrrolo[2,3-b]pyridin-5-yl]pyridine-2-carboxamide]
–	0.0001 to 10	50 to 100	0.0001 to 10	Cc1cc(-c2cc3cc(-c4cccc(C(=O)NC(C)(C)C#N)n4)cnc3[nH]2)ccn1 [Compound P-0210, N-(1-cyano-1-methyl-ethyl)-6-[2-(2-methyl-4-pyridyl)-1H-pyrrolo[2,3-b]pyridin-5-yl]pyridine-2-carboxamide]
